Data taken from publication PMC3049593 (British Journal of Cancer, 2011).

What was measured:
[1] = tested on: Lewis Lung Carcinoma (LL/2) tumour angiogenesis; assay: CD31 staining of primary LL/2 tumours; type: in vivo, mice
Protocol: (§1) Angiogenesis in vivo was evaluated using the Angiosponge model in which subcutaneously implanted, agarose-captured FGF2 gelfoam sterile sponges (Pfizer, West Ryde, Australia) induces vascularisation over a 10-day period responsive to angiogenesis inhibition as determined by the number of vessels with identifiable lumen that stained positive for CD31/PECAM-1, an antigen present specifically on endothelial cells ([McCarty et al, 2002]). PG545 was administered s.c. on the flank distal to the AngioSponge implant. This method was also used to examine five medium-sized primary tumours from each group of Lewis Lung Carcinoma (LL/2)-bearing mice.
In the orthotopic Hep3b2.1-7 human liver cancer model, treatment of mice (n=10) began 14 days after inoculation of 2.5 × 10^6 cells. […] To initiate tumour xenografts, MDA-MB-231, PC3, Cal27 and HepG2 cells were injected s.c. into nude mice (n=8) at 4, 5, 2 and 2 × 10^7 cells ml^−1, respectively. […] In the B16F0 lung metastasis model, 2 × 10^5 cells were injected via the tail vein of C57Bl6 mice (n=8). […] Surface lung macrometastases were counted for each group (n=9) upon study termination. […] Solid tumours were measured in two dimensions (length and width) and the tumour volume (cm^3) was calculated using the equation: V=length × width^2 × π/6. The anti-tumour activity was expressed as percent tumour growth inhibition (%TGI). […]

[2] = tested on: FGF2-induced vascularisation of AngioSponge; assay: AngioSponge in vivo angiogenesis model (CD31/PECAM-1 staining); set-up: species or system mice; conditions: s.c. daily or twice-weekly, 10 days
Protocol: as §1
Cell lines, cell culture, reagents and compounds
Tumour cell lines were cultured in RPMI1640 or DMEM cell culture medium (Invitrogen, Mt Waverley, Australia), 10% foetal bovine serum (Invitrogen or Hyclone/Quantum Scientific), 100 IU/mL penicillin (Invitrogen), 100 µ g/mL streptomycin (Invitrogen or Sigma-Aldrich, Castle Hill, Australia). […]
staining. For quantification, three independent visual fields (20x magnification) were chosen and positive stained spots or vessels with identifiable lumen were counted.
Angiogenesis inhibition and induction were calculated using the equations: […]

## CC(C)CCC[C@@H](C)[C@H]1CCC2C3CCC4C[C@@H](O[C@@H]5O[C@H](COS(=O)(=O)[O-])[C@@H](O[C@H]6O[C@H](COS(=O)(=O)[O-])[C@@H](O[C@H]7O[C@H](COS(=O)(=O)[O-])[C@@H](O[C@H]8O[C@H](COS(=O)(=O)[O-])[C@@H](OS(=O)(=O)[O-])[C@H](OS(=O)(=O)[O-])[C@H]8OS(=O)(=O)[O-])[C@H](OS(=O)(=O)[O-])[C@H]7OS(=O)(=O)[O-])[C@H](OS(=O)(=O)[O-])[C@H]6OS(=O)(=O)[O-])[C@H](OS(=O)(=O)[O-])[C@H]5OS(=O)(=O)[O-])CC[C@]4(C)C3CC[C@@]21C.[Na+].[Na+].[Na+].[Na+].[Na+].[Na+].[Na+].[Na+].[Na+].[Na+].[Na+].[Na+].[Na+] (stereo partly drawn) [PG545]
[1]; 20 mg kg^−1 once-weekly s.c.
  decrease in CD31 endothelial staining in tumours: 30%
[1]; 40 mg kg^−1 once-weekly s.c.
  decrease in CD31 endothelial staining in tumours: 22%
[2]
  inhibition of CD31 staining: Significant inhibition of CD31 staining
